Assay results reported in patent publication US20250154198A1, “PEPTIDE INHIBITORS OF INTERLEUKIN-23 RECEPTOR” (Zealand Pharma A/S, priority 2021, published 2025).
pIC50, pKi: −log10 of the molar value. Like-named read-outs stand apart in the source and are kept apart here. *1 amine or outer side, *2 acyl side, *3 side chain or, on linkers, in order; H or OH if unused. Where a SMILES comes first, the peptide text is derived from it. Bridges are numbered along the chain shown (N, C = ends). [ ]: non-standard residue; d: D form. 2Nal = N[C@@H](Cc1ccc2ccccc2c1)C(=O)O; αMeL = CC(C)C[C@](C)(N)C(=O)O; CH2COCH2 = O=C(C[*:1])C[*:2]; αMeK = C[C@](N)(CCCCN)C(=O)O

Assays:
[1] = target: T1, human IL-23R (Homo sapiens, UniProt Q5VWK5); assay: Binding assay (NanoBRET displacement of fluorophore-labelled reference compound) for estimating binding affinity to human IL-23R
T1 construct: UniProtKB—Q5VWK5, amino acids 22-629; secretion signal of the plasmid (Promega N1371); expressed in transfected cells
T1 sequence (Q5VWK5 22-629): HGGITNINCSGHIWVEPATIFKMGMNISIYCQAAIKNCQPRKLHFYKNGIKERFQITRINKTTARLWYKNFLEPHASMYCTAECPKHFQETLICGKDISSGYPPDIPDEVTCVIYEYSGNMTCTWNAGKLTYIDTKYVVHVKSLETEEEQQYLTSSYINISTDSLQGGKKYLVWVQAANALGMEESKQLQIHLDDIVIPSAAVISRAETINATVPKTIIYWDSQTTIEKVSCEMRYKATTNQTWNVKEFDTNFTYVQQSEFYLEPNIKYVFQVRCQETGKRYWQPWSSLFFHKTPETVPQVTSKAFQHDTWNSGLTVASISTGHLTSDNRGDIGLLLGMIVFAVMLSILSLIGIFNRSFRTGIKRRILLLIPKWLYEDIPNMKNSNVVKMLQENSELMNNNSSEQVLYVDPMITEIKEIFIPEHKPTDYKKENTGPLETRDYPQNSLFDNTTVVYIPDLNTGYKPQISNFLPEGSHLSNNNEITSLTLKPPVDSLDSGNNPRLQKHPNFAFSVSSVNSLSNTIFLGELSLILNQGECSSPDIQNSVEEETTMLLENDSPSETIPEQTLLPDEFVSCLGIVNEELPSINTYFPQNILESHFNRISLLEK

[2] = target: IL-23 mediated phospho-STAT3 formation in DB cells (Homo sapiens, UniProt Q5VWK5); assay: Functional inhibition of IL-23 mediated STAT3 signalling (phospho-STAT3 Tyr705 MSD) in DB cells; format: cell-based; settings: DB cells, read-out: IC50 (pSTAT3)
Source text: Functional Inhibition of IL-23 Mediated STAT3 Signalling by Compounds
Upon binding of IL-23, the IL-23R forms a heterodimer signalling complex together with IL-12R β1, which through the JAK2/STAT3 pathway promotes phosphorylation of STAT3 to form phospho-STAT3.
The assay was used to quantify the functional antagonism of a compound and to rank order the inhibitor compounds according to their potency. For compounds tested in this assay, the response was normalized relative to control values to calculate the IC50 and maximal inhibitory response from a concentration response curve of the compound in presence of a fixed concentration of human IL-23.
The assay procedure was as follows. […] Following preincubation of the DB cells with inhibitor for 15 min in a cell incubator (37° C., 5% CO2), 20 μL of the prepared 3× the EC80 of hIL-23 solution was added to each well and incubated for 90 min in a cell incubator (37° C., 5% CO2). For some wells buffer only or IL-23 only corresponding to the EC80 was added to obtain readouts needed for normalization. To terminate the assay, the plate was spun at 1000 G for 5 min to pellet cells, the supernatant removed using an 8-channel manual pipette, and then added 50 μL/well Complete Lysis Buffer from the MSD STAT3 kit (Cat #K150SVD, Mesoscale) to the cell pellet. To completely lyse cells to release phospho-STAT3 for detection, the plate was shaken for 10 min at room temperature (500 rpm) sealed with aluminum foil and placed at −80° C. for a minimum of 15 min. Detection of the phospho-STAT3 level in the cell lysate from the individual wells was determined using the MSD STAT3 kit (Cat #K150SVD, Mesoscale) and read on a Meso QuickPlex SQ 120 plate reader (Mesoscale).
For data analysis raw data counts from the Meso QuickPlex SQ 120 plate reader were normalized relative to the response by the EC80 of hIL-23 alone (no compound added) and the buffer level. Compound potency (IC50) and maximal inhibitory response (% inhibition) were estimated by computer-aided curve fitting using a 4-parameter logistic (4PL) non-linear model.

[3] = Table 3-1, read-out: Ki hIL-23R

SMILES	pKi ([1]; Table 2-7b, read-out: Ki IL-23R)	pIC50 ([2]; Table 2-7b)	pIC50 ([2]; Table 3-1)	pKi [1, 3]
CC(=O)N[C@@H](CC(=O)O)C(=O)N[C@H]1CCCCNC(=O)CC[C@@H](C(=O)N[C@@H](CCCNC(=N)N)C(N)=O)NC(=O)[C@H](CC(C)C)NC(=O)[C@H](Cc2ccc3ccccc3c2)NC(=O)[C@H](Cc2c[nH]c3ccccc23)NC(=O)[C@@H]2CSCc3ccc(cc3)CSC[C@H](NC(=O)[C@H](CO)NC1=O)C(=O)N[C@@H](Cc1c[nH]c3ccccc13)C(=O)N[C@@H](CCC(N)=O)C(=O)N2 [Compound 22, [Ac]-DK(1c)SC(2f)WQC(2f)W[2-Nal]LE(1c)R-[NH2]] (HELM PEPTIDE1{[ac].D.K.S.C.W.Q.C.W.[O=C([C@H](Cc1ccc2ccccc2c1)N[*:1])[*:2]].L.E.R.[am]}|CHEM1{[c1cc(C[*:2])ccc1C[*:1]]}$PEPTIDE1,PEPTIDE1,3:R3-12:R3|PEPTIDE1,CHEM1,5:R3-1:R1|PEPTIDE1,CHEM1,8:R3-1:R2$$$V2.0)	6.25	< 6.00	< 6.00	–
CC(C)C[C@@H]1NC(=O)[C@H](Cc2ccc3ccccc3c2)NC(=O)[C@H](Cc2c[nH]c3ccccc23)NC(=O)[C@@H]2CSCC(=O)CSC[C@H](NC(=O)[C@H](CO)NC(=O)CCNC(=O)CC[C@@H](C(=O)N[C@@H](CCCNC(=N)N)C(N)=O)NC1=O)C(=O)N[C@@H](Cc1c[nH]c3ccccc13)C(=O)N[C@@H](CCC(N)=O)C(=O)N2 [Compound 36, [bAla](1c)*SC(2a)WQC(2a)W[2-Nal]LE(1c)R-[NH2]] (HELM PEPTIDE1{[bAla].S.C.W.Q.C.W.[O=C([C@H](Cc1ccc2ccccc2c1)N[*:1])[*:2]].L.E.R.[am]}|CHEM1{[O=C(C[*:1])C[*:2]]}$PEPTIDE1,CHEM1,3:R3-1:R1|PEPTIDE1,CHEM1,6:R3-1:R2|PEPTIDE1,PEPTIDE1,1:R1-10:R3$$$V2.0)	–	–	< 6.00	< 6.00
CC(=O)N[C@@H](CC(=O)O)C(=O)N[C@H]1CCC(=O)NCCCC[C@@H](C(=O)N[C@@H](CCC(=O)O)C(=O)N[C@@H](CC(N)=O)C(=O)NCC(N)=O)NC(=O)[C@](C)(CCCCN)NC(=O)[C@H](Cc2ccc3ccccc3c2)NC(=O)[C@H](Cc2c[nH]c3ccccc23)NC(=O)[C@@H]2CSCC(=O)CSC[C@H](NC(=O)[C@H](CO)NC1=O)C(=O)N[C@@H](Cc1c[nH]c3ccccc13)C(=O)N[C@@H](CCC(N)=O)C(=O)N2 [Compound 61, [Ac]-DE(1c)SC(2a)WQC(2a)W[2-Nal][2-Me-Lys]K(1c)ENG-[NH2]] (Ac-DESCWQCW[2Nal][αMeK]KENG-NH2; lactam 2-11; linker 4-7 via CH2COCH2)	–	–	< 6.00	–
CC(C)C[C@@H]1NC(=O)[C@H](Cc2c[nH]c3ccccc23)NC(=O)[C@H](Cc2c[nH]c3ccccc23)NC(=O)[C@H](Cc2ccc(O)cc2)NC(=O)[C@H](CCC(N)=O)NC(=O)[C@H](Cc2c[nH]c3ccccc23)NC(=O)[C@H]([C@@H](C)O)NC(=O)[C@H](CO)NC(=O)[C@@H](NC(=O)[C@@H](N)CC(=O)O)CCC(=O)NCCCC[C@@H](C(=O)N[C@@H](CCCNC(=N)N)C(N)=O)NC1=O [Ref 3, reference compound] (HELM PEPTIDE1{D.E.S.T.W.Q.Y.W.W.L.K.R.[am]}$PEPTIDE1,PEPTIDE1,2:R3-11:R3$$$V2.0)	–	–	< 6.00	< 6.00
CC(=O)N[C@H]1CCC(=O)NCCCC[C@@H](C(N)=O)NC(=O)[C@H](CC(C)C)NC(=O)[C@H](Cc2c[nH]c3ccccc23)NC(=O)[C@H](Cc2c[nH]c3ccccc23)NC(=O)[C@@H]2CSCC(=O)CSC[C@H](NC(=O)[C@H](CO)NC1=O)C(=O)N[C@@H](Cc1c[nH]c3ccccc13)C(=O)N[C@@H](CCC(N)=O)C(=O)N2 [Compound 12, [Ac]-E(1c)SC(2a)WQC(2a)WWLK(1c)-[NH2]] (HELM PEPTIDE1{[ac].E.S.C.W.Q.C.W.W.L.K.[am]}|CHEM1{[O=C(C[*:1])C[*:2]]}$PEPTIDE1,PEPTIDE1,2:R3-11:R3|PEPTIDE1,CHEM1,4:R3-1:R1|PEPTIDE1,CHEM1,7:R3-1:R2$$$V2.0)	–	–	< 6.00	–
CSCC[C@@H]1NC(=O)[C@H](CO)NC(=O)[C@@H](NC(=O)[C@H](CC(=O)O)NC(C)=O)CCC(=O)NCCCC[C@@H](C(=O)N[C@@H](CCCNC(=N)N)C(N)=O)NC(=O)[C@H](CC(C)C)NC(=O)[C@H](Cc2c[nH]c3ccccc23)NC(=O)[C@H](Cc2c[nH]c3ccccc23)NC(=O)[C@H](CCSC)NC(=O)[C@H](CCC(N)=O)NC(=O)[C@H](Cc2c[nH]c3ccccc23)NC1=O [Ref 4, reference compound] (HELM PEPTIDE1{[ac].D.E.S.M.W.Q.M.W.W.L.K.R.[am]}$PEPTIDE1,PEPTIDE1,3:R3-12:R3$$$V2.0)	–	–	< 6.00	< 6.00
CC(=O)N[C@@H](CC(=O)O)C(=O)N[C@H]1CCC(=O)NCCCC[C@@H](C(=O)N[C@@H](CCCNC(=N)N)C(N)=O)NC(=O)[C@](C)(CC(C)C)NC(=O)[C@H](Cc2c[nH]c3ccccc23)NC(=O)[C@H](Cc2ccc3ccccc3c2)NC(=O)[C@@H]2CSCC(=O)CSC[C@H](NC(=O)[C@H](CCC(N)=O)NC1=O)C(=O)N[C@@H](Cc1c[nH]c3ccccc13)C(=O)N[C@@H](CCC(N)=O)C(=O)N2 [Compound 56, [Ac]-DE(1c)QC(2a)WQC(2a)[2-Nal]W[2-Me-Leu]K(1c)R-[NH2]] (Ac-DEQCWQC[2Nal]W[αMeL]KR-NH2; lactam 2-11; linker 4-7 via CH2COCH2)	–	–	< 6.00	–
CC(=O)N[C@H]1CCCCNC(=O)CC[C@@H](C(=O)N[C@@H](CCCNC(=N)N)C(N)=O)NC(=O)[C@H](CC(C)C)NC(=O)[C@H](Cc2ccc3ccccc3c2)NC(=O)[C@H](Cc2c[nH]c3ccccc23)NC(=O)[C@@H]2CSCC(=O)CSC[C@H](NC(=O)[C@H](CO)NC1=O)C(=O)N[C@@H](Cc1ccc3ccccc3c1)C(=O)N[C@@H](CCC(N)=O)C(=O)N2 [Compound 25, [Ac]-K(1c)SC(2a)[2-Nal]QC(2a)W[2-Nal]LE(1c)R-[NH2]] (Ac-KSC[2Nal]QCW[2Nal]LER-NH2; lactam 1-10; linker 3-6 via CH2COCH2)	–	–	< 6.00	–
CC(=O)N[C@@H](CC(=O)O)C(=O)N[C@H]1CCC(=O)NCCCC[C@@H](C(N)=O)NC(=O)[C@H](CC(C)C)NC(=O)[C@H](Cc2c[nH]c3ccccc23)NC(=O)[C@H](Cc2c[nH]c3ccccc23)NC(=O)[C@@H]2CSCC(=O)CSC[C@H](NC(=O)[C@H](CO)NC1=O)C(=O)N[C@@H](Cc1c[nH]c3ccccc13)C(=O)N[C@@H](CCC(N)=O)C(=O)N2 [Compound 11, [Ac]-DE(1c)SC(2a)WQC(2a)WWLK(1c)-[NH2]] (HELM PEPTIDE1{[ac].D.E.S.C.W.Q.C.W.W.L.K.[am]}|CHEM1{[O=C(C[*:1])C[*:2]]}$PEPTIDE1,PEPTIDE1,3:R3-12:R3|PEPTIDE1,CHEM1,5:R3-1:R1|PEPTIDE1,CHEM1,8:R3-1:R2$$$V2.0)	–	–	< 6.00	–
CC(=O)N[C@@H](CC(=O)O)C(=O)N[C@H]1CCC(=O)NCCCC[C@@H](C(=O)N[C@@H](CCCNC(=N)N)C(N)=O)NC(=O)[C@](C)(CC(C)C)NC(=O)[C@H](Cc2c[nH]c3ccccc23)NC(=O)[C@H](Cc2ccc(O)cc2)NC(=O)[C@@H]2CSCC(=O)CSC[C@H](NC(=O)[C@H](CCC(N)=O)NC1=O)C(=O)N[C@@H](Cc1c[nH]c3ccccc13)C(=O)N[C@@H](CCC(N)=O)C(=O)N2 [Compound 55, [Ac]-DE(1c)QC(2a)WQC(2a)YW[2-Me-Leu]K(1c)R-[NH2]] (HELM PEPTIDE1{[ac].D.E.Q.C.W.Q.C.Y.W.[CC(C)C[C@](C)(N[*:1])C(=O)[*:2]].K.R.[am]}|CHEM1{[O=C(C[*:1])C[*:2]]}$PEPTIDE1,PEPTIDE1,3:R3-12:R3|PEPTIDE1,CHEM1,5:R3-1:R1|PEPTIDE1,CHEM1,8:R3-1:R2$$$V2.0)	–	–	< 6.00	–
